Broadly, the inhibition is the drop in the measured response relative to a control, in per cent.

The values that follow come from patent publication US5886011A, “Piperidine derivatives as substance P antagonists” (Hisamitsu Pharmaceutical Co., Inc., priority 1995, dated 1999).

For assay [1], the target named is T1, Substance P receptor (guinea pig ileum longitudinal muscle) (Cavia porcellus, UniProt P30547).
T1 construct: ileum was removed and the longitudinal muscle was stripped off; from tissue; host or cells: guinea pig ileum longitudinal muscle, washed membrane pellets
T1 sequence (P30547 whole entry): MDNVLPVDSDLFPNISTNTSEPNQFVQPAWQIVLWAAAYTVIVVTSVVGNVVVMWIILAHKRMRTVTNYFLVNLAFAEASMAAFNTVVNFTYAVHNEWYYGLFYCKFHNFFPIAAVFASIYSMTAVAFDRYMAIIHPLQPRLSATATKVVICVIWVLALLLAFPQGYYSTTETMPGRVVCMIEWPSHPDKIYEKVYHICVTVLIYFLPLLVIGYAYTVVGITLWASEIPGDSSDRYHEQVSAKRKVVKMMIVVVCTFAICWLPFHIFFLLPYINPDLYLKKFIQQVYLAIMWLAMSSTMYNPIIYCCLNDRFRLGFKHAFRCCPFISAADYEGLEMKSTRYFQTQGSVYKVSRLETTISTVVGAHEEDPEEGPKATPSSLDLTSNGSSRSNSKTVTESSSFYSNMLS
Kind of assay: Receptor-binding test ([125I]SP ligand, guinea pig ileum longitudinal muscle receptor samples). The settings on record: 10^-8 M compound; [125I]SP 50 pM, 22° C., 20 minutes. The protocol:
To the longitudinal muscles, 20 times of the wet weight of the buffer solution (1) (50 mM tris-HCl buffer solution containing 2 mM MgCl2 and 0.1 mM phenyl methyl sulfonyl-fluoride, pH 7.4) was added. The mixture was homogenized under ice-cooling and centrifuged at 48,000×G for 15 minutes. After removing the supernatant, the pellets were re-suspended in the buffer solution (1) and centrifuged at 48,000×G for 15 minutes. The buffer solution (2) (50 mM tris.HCl buffer solution containing 10 mM ethylenediaminetetraacetic acid and 300 mM KCl, pH 7.4) was added to the pellets and suspended to be reacted under ice-cooling for 60 minutes. The resulted reaction materials were centrifuged at 48,000×G for 15 minutes. After suspending the pellets in the buffer solution (1) and distributing, the mixture were centrifuged at 48,000×G for 15 minutes. The pellets were stored at -80° C. until used as receptor samples.
Thus obtained receptor samples were suspended in 50 mM tris-HCl buffer solution to be used. As the buffer solution, binding buffer solution (tris.HCl buffer solution containing 0.02% bovine serum albumin, 40 μg/ml bacitracin, 4 μg/ml chymostatin, 4 μg/ml leupeptin and 3 mM MnCl2, pH7.4) was used.

Assay [2] concerns Substance P (guinea pig ileum). Kind of assay: Bioassay test: Substance P-induced contraction of guinea pig ileum strips. To be noted: 10^-7 M compound; contraction by 10^-8 M Substance P regarded as 100%. The protocol: B. Bioassay Test […] After exsanguinating guinea pigs (body weight: 500-600 g) deadly, ileum was removed and 2 cm of ileum strips were prepared. In a Tyrode's solution (10 ml, 37° C.) in which air is passed, containing 5.2 μM atropine and 4.1 μM indomethacin, the strips having 0.5 g resting tension was suspended, and contractions of muscle were recorded on a recording device (RTA-1200, manufactured by Nihon Kohden) via an isotonic transducer (TB-612T, manufactured by Nihon Kohden). Using three specimens per one group, effects of the subject drugs on the muscle contraction caused by 10^-8 M Substance P were determined.

Another assay relates to Substance P. Kind of assay: Antagonism test on Substance P-induced airway edema. The assay is classed as in vivo, guinea pig (hartley male). The settings on record: Cavia porcellus, po, read-out: Inhibition Rate (airway edema, dye transudated into trachea and main bronchi). On the procedure:
C. Antagonism Test on Substance P-induced Airway Edema
20 mg/kg of Evans' Blue and 1 nm/kg Substance P containing 200 I.U./kg of heparin were administered intravenously to hartley male guinea pigs in order to induce airway edema. After ten minutes, the guinea pigs were exsanguinated deadly. The amounts of the dye transudated into trachea and main bronchi were determined. 1 mg/kg of the subject compounds were administered orally at thirty minutes before the induction. […] Further, for comparison, the following compounds A and B were used.

[3] abbreviates: 1 mg/kg orally, thirty minutes before induction, compared to the control group.

Each structure is given as a SMILES string. Counter-ions that a name gives are not always drawn. Like-named read-outs stand apart in the source and are kept apart here.

In turn, `COc1cc(CN[C@H]2CCCN[C@H]2c2ccccc2)c2c(c1)CC(C)(C)O2` [Example 12, (2S,3S)-3-[(2,2-dimethyl-5-methoxy-2,3-dihydrobenzofuran-7-yl)methyl]amino-2-phenylpiperldine hydrochloride] registered an inhibition at 0.01 µM in assay [1] of 82.2%. Further, in assay [2], the “Contriction Inhibition” value is recorded as 43.0%.
For `CC1Cc2cc(Cl)cc(CN[C@H]3CCCN[C@H]3c3ccccc3)c2O1.Cl` (stereo partly drawn) [Example 14, (2S,3S)-3-[(5-chloro-2-methyl-2,3-dihydrobenzofuran-7-yl)methyl]amino-2-phenylpiperidine hydrochloride] the same measures were 93.5% and 92.3%.
The compound `CC1(C)Cc2cc([N+](=O)[O-])cc(CN[C@H]3CCCN[C@H]3c3ccccc3)c2O1.Cl` [Example 4, (2S,3S)-3-[(2,2-dimethyl-5-nitro-2,3-dihydrobenzofuran-7-yl)methyl]amino-2-phenylpiperidine hydrochloride] showed an inhibition at 0.01 µM in assay [1] of 89.7%. In addition, the “Contriction Inhibition” value in assay [2] is on record as 60.2%.
In turn, `Cl.c1ccc([C@@H]2NCCC[C@@H]2NCc2ccc3c(c2)OCCO3)cc1` [Example 19, (2S,3S)-3-(3,4-ethylenedioxybenzyl)amino-2-phenylpiperidine hydrochloride] showed an inhibition at 0.01 µM in assay [1] of 48.7%. The “Contriction Inhibition” value in assay [2] was determined as 22.1%.
On to `COc1ccc(OC(F)(F)F)cc1CN[C@H]1CCCN[C@H]1c1ccccc1` [Compound B, (2S,3S)-3-(2-methoxy-5-trifluoromethoxybenzyl)amino-2-phenylpiperidine hydrochloride, reference compound], for which the inhibition in vivo at 1 mg/kg in the assay on Substance P came to 44%.
Compound `CC1Cc2cc(S(=O)(=O)N(C)C)cc(CN[C@H]3CCCN[C@H]3c3ccccc3)c2O1` (stereo partly drawn) [Example 8, (2S,3S)-3-[(5-dimethlaminosulfonyl-2-methyl-2,3-dihydrobenzofuran-7-yl)methyl]amino-2-phenylpiperidine hydrochloride] came in with an inhibition at 0.01 µM in assay [1] of 92%. Moreover, the “Contriction Inhibition” value in assay [2] stood at 85.0%.
On the same counts, the results for `CSc1cc(CN[C@H]2CCCN[C@H]2c2ccccc2)c2c(c1)CC(C)(C)O2.Cl` [Example 5, (2S,3S)-3-[(2,2-dimethyl-5-methylthio-2,3-dihydrobenzofuran-7-yl)methyl]amino-2-phenylpiperidine hydrochloride] are 91.8% and 80.5%.
With `CC1Oc2c(CN[C@H]3CCCN[C@H]3c3ccccc3)cccc2C1C.Cl` (stereo partly drawn) [Example 20, (2S,3S)-3-[(2,3-dimethyl-2,3-dihydrobenzofuran-7-yl)methyl]amino-2-phenylpiperidine hydrochloride], in assay [1], the inhibition at 0.01 µM stood at 65%. The “Contriction Inhibition” value in assay [2] is 38.9%.
On the same counts, the results for `CC1(C)Cc2cc(S(C)(=O)=O)cc(CN[C@H]3CCCN[C@H]3c3ccccc3)c2O1.Cl` [Example 6, (2S,3S)-3-[(2,2-dimethyl-5-methylsulfonyl-2,3-dihydrobenzofuran-7-yl)methyl]amino-2-phenylpiperidine hydrochloride] are 74.8% and 50.9%.
In the case of `CC1Cc2cccc(CN[C@H]3CCCN[C@H]3c3ccccc3)c2O1.Cl` (single isomer, unassigned) [Example 3], the “Contriction Inhibition” value in assay [2] is recorded as 93.2%.
`CC1Cc2cccc(CN[C@H]3CCCN[C@H]3c3ccccc3)c2O1.Cl` (single isomer, unassigned) [Example 3, hydrochloride] registered an inhibition at 0.01 µM in assay [1] of 96%.
In assay [1], `COc1cc(CN[C@H]2CCCN[C@H]2c2ccccc2)c2c(c1)CC(C)O2.Cl` (stereo partly drawn) [Example 15, (2S,3S)-3-[(5-methoxy-2-methyl-2,3-dihydrobenzofuran-7-yl)methyl]amino-2-phenylpiperidine hydrochloride] showed an inhibition at 0.01 µM of 88.1%. Also, the “Contriction Inhibition” value in assay [2] was 75.2%.
Turning to `Cl.c1ccc([C@@H]2NCCC[C@@H]2NCc2cc(C3CCCCC3)cc3c2OCC3)cc1` [Example 26, (2S,3S)-3-[(5-cyclohexyl-2,3-dihydrobenzofuran-7-yl)methyl]amino-2-phenylpiperidine hydrochloride], testing at 0.01 µM in assay [1] gave an inhibition of 56.4%. In addition, the “Contriction Inhibition” value in assay [2] is reported as 62.1%. Moreover, the inhibition in vivo at 1 mg/kg in the assay with Substance P (setting [3]) was determined as 61%.
The compound `Cc1cc(CN[C@H]2CCCN[C@H]2c2ccccc2)c2c(c1)CC(C)(C)O2.Cl` [Example 17, (2S,3S)-3-[(2,2,5-trimethyl-2,3-dihydrobenzofuran-7-yl)methyl]amino-2-phenylpiperidine hydrochloride] showed an inhibition at 0.01 µM in assay [1] of 94.2%. In addition, the “Contriction Inhibition” value in assay [2] amounted to 94.6%.
For `CC1(C)Cc2cc(Cl)cc(CN[C@H]3CCCN[C@H]3c3ccccc3)c2O1.Cl` [Example 11, (2S,3S)-3-[(5-chloro-2,2-dimethyl-2,3-dihydrobenzofuran-7-yl)methyl]amino-2-phenylpiperidine hydrochloride], at 0.01 µM the inhibition in assay [1] was 85.8%. In addition, the “Contriction Inhibition” value in assay [2] was 58.2%.
On the same counts, the results for `Cl.c1ccc([C@@H]2NCCC[C@@H]2NCc2cccc3c2OCC3)cc1` [Example 13, (2S,3S)-3-[(2,3-dihydrobenzofuran-7-yl)methyl]amino-2-phenylpiperidine hydrochloride] are 84.7% and 47.4%.
For `Cc1ccc(CN[C@H]2CCCN[C@H]2c2ccccc2)c2c1CC(C)(C)O2` [Example 16, (2S,3S)-3-[2,2,4-trimethyl-2,3-dihydrobenzofuran-7-yl)methyl]amino-2-phenylpiperidine hydrochloride] the same measures were 82.5% and 78.3%.
Regarding `Cc1ccc(CN[C@H]2CCCN[C@H]2c2ccccc2)c2c1C(C)C(C)O2.Cl` (stereo partly drawn) [Example 21, (2S,3S)-3-[(2,3,4-trimethyl-2,3-dihydrobenzofuran-7-yl)methyl]amino-2-phenylpiperidine hydrochloride], in assay [1], the inhibition at 0.01 µM was 53.1%. Besides, in assay [2], the “Contriction Inhibition” value was determined as 13.4%.
For `c1ccc([C@@H]2NCCC[C@@H]2NCc2cccc3c2OCCC3)cc1` [Example 10, (2S,3S)-3-[(3,4-dihydro-1,2-benzopyran-8-yl)methyl]amino-2-phenylpiperidinehydrochloride] the same measures were 86.2% and 61.8%.
On the same counts, the results for `CN(C)S(=O)(=O)c1cc(CN[C@H]2CCCN[C@H]2c2ccccc2)c2c(c1)CC(C)(C)O2.Cl` [Example 7, (2S,3S)-3-[(2,2-dimethyl-5-dimethylaminosulfonyl-2,3-dihydrobenzofuran-7-yl)methyl]amino-2-phenylpiperidine hydrochloride] are 54% and 15.0%.
For `Cl.c1ccc([C@@H]2NCCC[C@@H]2NCc2ccc3c(c2)OCO3)cc1` [Example 9, (2S,3S)-3-(3,4-methylenedioxybenzyl)amino-2-phenylpiperidine hydrochloride] the same measures were 36.6% and 5.5%.
In the case of `CC1(C)Cc2cccc(CN[C@H]3CCCN[C@H]3c3ccccc3)c2O1.Cl` [Example 2, (2S,3S)-3-[(2,2-dimethyl-2,3-dihydrobenzofuran-7-yl)methyl]amino-2-phenylpiperidine hydrochloride], 0.01 µM produced 74.8% inhibition in assay [1]. Moreover, the “Contriction Inhibition” value in assay [2] came to 47.0%.
For `CC1(C)Cc2c(Cl)ccc(CN[C@H]3CCCN[C@H]3c3ccccc3)c2O1.Cl` [Example 18, (2S,3S)-3-[(4-chloro-2,2-dimethyl-2,3-dihydrobenzofuran-7-yl)methyl]amino-2-phenylpiperidine hydrochloride] the same measures were 89.9% and 81.2%.
`CC(C)(C)c1cc2c(c(CN[C@H]3CCCN[C@H]3c3ccccc3)c1)OCC2.Cl` [Example 24, (2S,3S)-3-[(5-tert-butyl-2,3-dihydrobenzofuran-7-yl)methyl]amino-2-phenylpiperidine hydrochloride] showed an inhibition at 0.01 µM in assay [1] of 50.3%. In addition, the “Contriction Inhibition” value in assay [2] came to 69.5%. Further, the inhibition in vivo at 1 mg/kg with Substance P (setting [3]) was determined as 64%.
